As a reminder, the melting point is the temperature of the solid-liquid transition.

The compound `Nc1nc(Nc2ccccc2)sc1C(=O)c1cccc(OCc2ccccc2)c1` [Example 16, (4-Amino-2-phenylaminothiazol-5-yl)-(3-benzyloxyphenyl)methanone] showed a melting point of 121 to 124 °C.
Turning to `Nc1nc(Nc2ccccc2)sc1C(=O)N1CCOCC1` [Example 49, (4-Amino-2-phenylaminothiazol-5-yl)morpholin-4-ylmethanone], the melting point lay in the range of 212 to 213 °C.
The compound `Nc1nc(Nc2ccccc2)sc1C(=O)c1csc2ccccc12` [Example 40, (4-Amino-2-phenylaminothiazol-5-yl)-benzofblthiophen-3-yl-methanone] yielded a melting point of 211 to 212 °C.
Turning to `Nc1nc(Nc2ccccc2)sc1C(=O)c1ccc(Cl)s1` [Example 21, (4-Amino-2-phenylaminothiazol-5-yl)-(5-chlorothiophen-2-yl)methanone], the melting point fell in the range of 167 to 169 °C.
As for `Nc1nc(Nc2ccccc2)sc1C(=O)c1ccc(O)c(O)c1` [Example 29, (4-Amino-2-phenylaminothiazol-5-yl)-(3,4-dihydroxyphenyl)methanone], the figure is 222 to 224 °C; as for `CCCNc1nc(N)c(C(=O)c2cccnc2)s1` [Example 32, (4-Amino-2-propylaminothiazol-5-yl)pyridin-3-yl-methanone], 205 to 206 °C.
As for `Nc1nc(Nc2ccccc2)sc1C(=O)c1c(Cl)cccc1Cl` [Example 42, (4-Amino-2-phenylaminothiazol-5-yl)-(2,6-dichlorophenyl)methanone], the figure is 245 to 246 °C; as for `Cc1cc(C(=O)c2sc(Nc3ccccc3)nc2N)ccc1Cl` [Example 28, (4-amino-2-phenylaminothiazol-5-yl)-(4-chloro-3-methylphenyl)methanone], 173 to 175 °C.
Next, `Nc1nc(Nc2ccccc2)sc1C(=O)c1ccc(C(F)(F)F)cc1` [Example 6, (4-Amino-2-phenylaminothiazol-5-yl)-(4-trifluoromethylphenyl)methanone]: 201 to 205 °C; `Cc1cc(C)c(C(=O)c2sc(Nc3ccccc3)nc2N)c(C)c1` [Example 35, (4-Amino-2-phenylaminothiazol-5-yl)-(2,4,6-trimethylphenyl)methanone]: 198 to 200 °C; `Cc1c(C(=O)c2sc(Nc3ccccc3)nc2N)sc2ccccc12` [Example 19, (4-Amino-2-phenylaminothiazol-5-yl)-(3-methylbenzo[b]thiophen-2-yl) methanone]: 165 to 167 °C.
For `Nc1nc(Nc2ccccc2)sc1C(=O)Nc1ccccc1` [Example 45, 4-Amino-2-phenylaminothiazole-5-carboxylic acid phenylamide], the melting point turned out to be 75 °C.
Next, `Nc1nc(Nc2ccccc2)sc1C(=O)c1ccc(Cl)c(Cl)c1` [Example 18, (4-Amino-2-phenylaminothiazol-5-yl)-(3,4-dichlorophenyl)methanone]: 195 to 198 °C; `Nc1nc(Nc2ccccc2)sc1C(=O)c1ccc(F)c(F)c1` [Example 12, (4-Amino-2-phenylaminothiazol-5-yl)-(3,4-difluorophenyl)methanone]: 178 to 180 °C; `Nc1nc(Nc2ccccc2)sc1C(=O)c1ccc(-c2ccccc2)cc1` [Example 15, (4-Amino-2-phenylaminothiazol-5-yl)biphenyl-4-ylmethanone]: 224 to 225 °C.
Next, `Nc1nc(Nc2ccccc2)sc1C(=O)c1ccc(OC(F)(F)F)cc1` [Example 8, (4-Amino-2-phenylaminothiazol-5-yl)-(4-trifluoromethoxyphenyl)methanone]: 170 to 173 °C; `COc1ccc(C(=O)c2sc(Nc3ccccc3)nc2N)c(OC)c1` [Example 30, (4-Amino-2-phenylaminothiazol-5-yl)-(2,4-dimethoxyphenyl)methanone]: 196 to 198 °C.
As for `Nc1nc(Nc2ccc(Cl)cc2)sc1C(=O)c1cccc(OCc2ccccc2)c1` [Example 54, [4-Amino-2-(4-chlorophenylamino)thiazol-5-yl]-(3-benzyloxyphenyl)methanone], the figure is 173 to 174 °C; as for `COc1cccc(C(=O)c2sc(Nc3ccccc3)nc2N)c1` [Example 23, (4-Amino-2-phenylaminothiazol-5-yl)-(3-methoxyphenyl)methanone], 174 to 175 °C.
`COC(=O)c1sc(Nc2ccccc2)nc1N` [Example 38, 4-Amino-2-phenylaminothiazole-5-carboxylic acid methyl ester]: the melting point is 173 to 174 °C.
In turn, `Nc1nc(Nc2ccccc2)sc1-c1ccc([N+](=O)[O-])cc1` [Example 20, 4-Amino-2-phenylamino-5-(4-nitrophenyl)thiazole] returned a melting point of 217 to 219 °C.
Next, `CCC(=O)c1sc(Nc2ccccc2)nc1N` [Example 11, 1-(4-Amino-2-phenylaminothiazol-5-yl)propan-1-one]: 136 to 139 °C.
As for `Nc1nc(Nc2ccccc2)sc1C(=O)c1ccccc1[N+](=O)[O-]` [Example 25, (4-Amino-2-phenylaminothiazol-5-yl)-(2-nitrophenyl)methanone], the figure is 117 to 119 °C.
Next, `Nc1nc(Nc2ccccc2)sc1C(=O)c1cccc(F)c1` [Example 13, (4-Amino-2-phenylaminothiazol-5-yl)-(3-fluorophenyl)methanone]: 161 to 164 °C; `COc1ccccc1C(=O)c1sc(Nc2ccccc2)nc1N` [Example 22, (4-Amino-2-phenylaminothiazol-5-yl)-(2-methoxyphenvl)methanone]: 196 to 200 °C.
`Nc1nc(Nc2ccccc2)sc1C(=O)c1ccc([N+](=O)[O-])cc1` [Example 27, (4-Amino-2-phenylaminothiazol-5-yl)-(4-nitrophenyl)methanone] registered a melting point of 206 to 208 °C.
As for `Nc1nc(Nc2ccccc2)sc1C(=O)c1ccc2ccccc2c1` [Example 14, (4-Amino-2-phenylaminothiazol-5-yl)naphthalen-2-ylmethanone], the figure is 227 to 229 °C.
As for `CON(C)C(=O)c1sc(Nc2ccccc2)nc1N` [Example 46, 4-Amino-2-phenyiaminothiazole-5-carboxylic acid methoxymethylamide], the figure is 152 to 153 °C; as for `CCN(CC)c1ccc(C(=O)c2sc(Nc3ccccc3)nc2N)cc1` [Example 7, (4-Amino-2-phenylaminothiazol-5-yl)-(4-diethylaminophenyl)methanone], 214 to 216 °C.
Next, `Nc1nc(Nc2ccc(Br)cc2)sc1C(=O)C1CC1` [Example 17, [4-Amino-2-(4-bromophenylamino)thiazol-5-yl]cyclopropylmethanone]: 204 to 206 °C; `COc1cccc(OC)c1C(=O)c1sc(Nc2ccccc2)nc1N` [Example 37, (4-Amino-2-phenylaminothiazol-5-yl)-(2,6-dimethoxyphenyl)methanone]: 224 to 226 °C.

The values are drawn from patent US20010039275A1, “Use of 2,4-diaminothiazole derivatives” (priority 2000, published 2001).
